Converted amounts (≈) assume the structure as drawn. “And” between values parts separate entries of the source, which are not always exact repeats. Equal entries are not always repeated. “Also recorded” adds a separate entry of the source.
Experiments:
[1] = tested on: wild-type SOD1, SOD1^A4V, SOD1^G93A, SOD1^H46R, and SOD1^G85R; test: Mass spectrometry assay for intact protein cross-linking in vitro; format: binding, human
Method: We employed a mass spectrometry (MS) assay for intact protein cross-linking. In this assay, any non-covalent (i.e., native) dimer is dissociated by a combination of acidic, organic media and MS source conditions.
Wild-type SOD1, SOD1^A4V, SOD1^G93A, SOD1^H46R, and SOD1^G85R stock solutions were diluted to 40 μm in 10 mM ammonium acetate (pH 7.4). […] Prior to infusion, samples were diluted to 1 μm in 50:50 acetonitrile:water, with 0.1% formic acid. During analysis, 32 scans were acquired in positive mode and averaged. Funnel 1 and skimmer 1 were kept around 150 V and 20 V, respectively, and funnel RF amplitude was held at 60.0 Vpp.

[2] = tested on: alpha 1-acid glycoprotein; format: in vitro ADME
[3] = biological target: T1, EGFP-labeled SOD1 (wild-type, fALS variants, Cys111Ser, F50E/G51E) (Homo sapiens, UniProt P00441, C112S); test: Immunoblotting for SOD1-EGFP cross-linking in NSC-34 cells; format: cell-based, mouse NSC-34 cells; conditions: 20 μm S-XL6
T1 construct: expressed in transfected cells; host or cells: NSC-34 mouse neuroblastoma/motor neuron hybrid cells
Method: (§1) Mouse neuroblastoma/motor neuron hybrid cells (NSC-34) were cultured and maintained as previously described. Briefly, NSC-34 cells were cultured in Dulbecco’s Modified Eagle’s Medium with F12 supplement (DMEM/F12, Invitrogen Australia) containing 10% (v/v) heat-inactivated fetal bovine serum (FBS, Bovogen Biologicals, Australia) and 2 mM L-Glutamine (Invitrogen, Australia). Cells were passaged using 0.25% trypsin, 0.02% EDTA (Invitrogen, Australia). Cells were maintained within humidified incubators at 37°C with 5% CO2.
(§2) To transfect NSC-34 cells, they were first plated out to 40% confluency in either 6-well or 12-well tissue culture-treated plates and cultured for 24 h. Following this, TransIT-X2 reagent (Mirus Bio, USA) was used according to the manufacturer’s instructions to transfect NSC-34’s (1 μg DNA per well for 12-well plates, 2.5 μg per well for a 6-well plate). Cells were then incubated for 8 h prior to replating for experiments into other plates or chambers.
(§3) Transfected NSC-34 cells were plated out into 12-well plates and left overnight. […] Cells were then harvested via aspiration and pelleted (300 × g). Lysis and immunoblots were carried out as previously described. Briefly, cell pellets were lysed in ice-cold lysis buffer containing protease inhibitors (Thermo Fisher, USA) and N-ethylmaleimide (NEM) at a final concentration of 1 mg/mL. Protein concentration was measured by DC assay (BioRad, Australia) and samples were denatured in SDS-sample buffer containing 40 mM NEM at 90°C for 5 min. Lysates were loaded into 26-lane stain-free gels (BioRad, Australia) and electrophoresed. Proteins were transferred to 0.2 μm PVDF membranes for 1 h at 4°C. Membranes were blocked in 5% skim milk in TBST for 1 h prior to addition to primary antibody which as a rabbit anti-GFP antibody (ab290, 1:5,000, Abcam USA) and incubated overnight at 4°C. Membranes were washed 3× and then incubated for 1 h at room temperature in secondary antibody (goat anti-rabbit HRP conjugate at 1:5,000 (catalog no.: P0448; Dako). Membranes were then washed 3× prior to developing with SuperSignal West Pico Plus substrate (Thermo Fisher Scientific).

[4] = biological target: T2, EGFP-labeled SOD1 (wild-type, fALS variants, Cys111Ser, F50E/G51E) (Homo sapiens, UniProt P00441, F51E/G52E); test: as above; format: cell-based, mouse NSC-34 cells; conditions: 20 μm S-XL6
T2 construct: expressed in transfected cells; host or cells: NSC-34 mouse neuroblastoma/motor neuron hybrid cells
Method: as §1, §2, §3

[5] = tested on: EGFP-labeled SOD1 (wild-type, fALS variants, Cys111Ser, F50E/G51E); test: as above; format: cell-based, mouse NSC-34 cells
Method: as §1, §2, §3

[6] = tested on: NSC-34 cells expressing EGFP-G93A; test: Determination of cells containing inclusions; format: cell-based, mouse; parameters: Inclusion Formation: unit not given here; conditions: for Inclusion Formation: G93A, 48 h, replicates
Method: (§4) Transfected NSC-34 cells were plated out into 96-well plates and left overnight. […] Cells were then fixed using 4% (w/v) paraformaldehyde in 1×PBS for 20 min. Plates for imaging were then processed as previously described with some changes. Cells were imaged using a DMi8 epifluorescent microscope (Leica, Germany) fitted with a Mercury Arc Lamp, a 10× 0.25NA (CAT NO) air objective and an automated stage. A software-based autofocus strategy was utilized to focus on the GFP signal within cells, with a subsequent image being taken in the DAPI channel to view Hoescht-stained nuclei. Relative focus correction was applied between channels to offset emission wavelength effects to the focal plane. Following image acquisition, images were corrected for illumination variation via a background method and processed using a combination of FIJI [66], StarDist, CellProfiler, and CellProfiler Analyst as previously described.

[7] = tested on: NSC-34 cells expressing EGFP-WT-SOD1; test: Determination of cells containing inclusions; format: cell-based, mouse; parameters: Inclusion Formation: unit not given here; conditions: for Inclusion Formation: WT, 48 h, replicates
Method: as §4

[8] = Blood-brain barrier penetration; format: in vivo, mouse
in vivo = conditions: C57BL/6, mouse
Method: (§5) Any clinical abnormalities including but not limited to ruffled fur, unstable gait, severe lethargy, and mortality was observed after dosing. The post-dose washout period was maintained for 48 h for both PO, IV, and SC route of administration.

C57BL/6 mice = test: in vivo; conditions: mouse
Method: as §5

Maximum solubility = format: physicochemical; conditions: pH 7.4, aqueous buffer

T2 sequence (P00441 2-154 F51E/G52E): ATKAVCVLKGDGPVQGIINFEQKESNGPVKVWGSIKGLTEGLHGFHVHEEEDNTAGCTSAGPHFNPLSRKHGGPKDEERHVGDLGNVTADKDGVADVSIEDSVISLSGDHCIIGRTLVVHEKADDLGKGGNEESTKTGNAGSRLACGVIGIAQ
T1 sequence (P00441 2-154 C112S): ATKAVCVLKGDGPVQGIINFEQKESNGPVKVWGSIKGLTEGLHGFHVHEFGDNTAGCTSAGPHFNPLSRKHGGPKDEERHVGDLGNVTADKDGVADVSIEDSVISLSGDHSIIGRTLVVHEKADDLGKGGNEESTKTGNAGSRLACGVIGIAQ

[O-][S+]1CCCCS1 (stereo not shown) [S-XL6, 1,2-dithiane-1-oxide]
dead-end modifications of SOD1 [1]: not observed | conversion of SOD1 monomer to cross-linked dimer ([1]; denaturing MS conditions): full conversion of monomer to dimer | binding to purified protein [2]: not bound | cross-linking of the Cys111Ser variant [3]: lack of cross-linking | binding to the constitutively monomeric variant (F50E/G51E) [4]: lack of binding | cross-linking yield compared to leading cyclic thiosulfinates (Comp 2–5) [5]: highest cross-linking yield; also recorded: most effective compound | off-product with EGFP-wild-type and EGFP-D90A SOD1 [5]: high-molecular weight species consistent with trimeric SOD1 | aggregation of EGFP-labeled G93A [6]: did not affect | Inclusion Formation ([6]; 5 uM): 5.34 and 6.771 and 14.6572 and 11.1111 and 8.602 | Inclusion Formation ([6]; 10 uM): 6.731 and 9.113 and 13.3487 and 16.0367 and 12.7358 | Inclusion Formation ([6]; 20 uM): 8.219 and 11.7978 and 11.4911 and 10.411 and 12.1547 | aggregation of EGFP-labeled wild-type SOD1 [7]: increased cellular aggregation; also recorded: accelerate the aggregation | Inclusion Formation ([7]; 5 uM): 0.4215 and 0.8811 and 2.367 and 0.4188 and 0.4044 | Inclusion Formation ([7]; 10 uM): 0.8155 and 1.677 and 1.595 and 4.094 and 2.381 | Inclusion Formation ([7]; 20 uM): 9.589 and 4.535 and 7.818 and 6.78 and 6.154 | blood–brain barrier crossing ([8]; fALS mouse model): crosses the blood–brain barrier | log BB at 1 h ([8]; transgenic SOD1^G93A, mouse, brain/blood, subcutaneous, 30 mg/kg): 0.02 | Kp at 1 h ([8]; transgenic SOD1^G93A, mouse, brain/blood, subcutaneous, 30 mg/kg, read-out: % BBB penetration): 0.0002 | LD50 at 48 h (in vivo; iv): 75 mg/kg | LD50 at 48 h (in vivo; po): 1000 mg/kg | LD50 at 48 h (in vivo; sc): 275 mg/kg | mortality in up-down study (C57BL/6 mice; iv, 55 mg/kg): One mouse died | mortality in up-down study (C57BL/6 mice; iv, 60 mg/kg): another mouse died | mortality in up-down study (C57BL/6 mice; sc, 60 mg/kg): one mouse died | solubility (Maximum solubility): 360 mM (≈ 49 mg/mL)
